Measurements published in patent US9062071B2, “Substituted piperidines as HDM2 inhibitors” (Merck Sharp & Dohme Corp, priority 2011, dated 2015).
pIC50: −log10 of the molar value.

What follows are molecules tested against HDM2 protein (Homo sapiens, UniProt Q00987) (assay: fluorescence polarization screening assay (FP IC50)). Conditions: class symbols.
Chain of HDM2 protein (Q00987 whole entry): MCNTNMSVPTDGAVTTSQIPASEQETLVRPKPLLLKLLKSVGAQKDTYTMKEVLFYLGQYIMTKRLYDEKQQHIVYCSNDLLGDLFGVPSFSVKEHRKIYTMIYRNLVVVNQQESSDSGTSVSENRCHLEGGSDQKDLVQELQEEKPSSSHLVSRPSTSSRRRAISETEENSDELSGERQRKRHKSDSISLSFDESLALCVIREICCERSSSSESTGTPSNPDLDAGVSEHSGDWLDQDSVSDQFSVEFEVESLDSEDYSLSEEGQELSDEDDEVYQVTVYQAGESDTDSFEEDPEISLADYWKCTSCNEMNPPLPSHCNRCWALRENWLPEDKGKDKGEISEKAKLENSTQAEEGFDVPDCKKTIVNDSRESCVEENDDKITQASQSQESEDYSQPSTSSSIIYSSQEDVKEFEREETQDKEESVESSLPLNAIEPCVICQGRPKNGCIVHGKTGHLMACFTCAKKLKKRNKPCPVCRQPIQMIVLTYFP
Type: binding
Description: The compounds were evaluated to determine activity at the HDM2 protein by known methods such as the fluorescence polarization screening assay that measures the inhibitory concentration that achieves 50% of maximal activity (FP IC50) and the dissociation constant for inhibitor binding (FP Ki). [Zhang et al., J. Analytical Biochemistry 331: 138-146 (2004)].
Work on `CCC[C@H]1N(C(=O)c2ncccc2C(F)(F)F)CCC[C@@]1(Oc1csc(C(F)(F)F)c1)C(=O)N1CCc2cc(F)ccc2C1CCCO` (stereo partly drawn) [Compound A54, 3-(6-fludro-2-{[(2R,3S)-2-propyl-1-{[3-(trifluoromethyl)pyridin-2-yl]carbonyl}-3-{[5-(trifluoromethyl)thiophen-3-yl]oxy}piperidin-3-yl]carbonyl}-1,2,3,4-tetrahydroisoquinolin-1-yl)propan-1-ol] yielded a pIC50 of 4.70 to 7.00.
`CCC[C@H]1N(C(=O)c2ncccc2C(F)(F)F)CCC[C@@]1(Oc1csc(C(F)(F)F)c1)C(=O)N1CCc2cc(Cl)ccc2C1(CCO)C(N)=O` (stereo partly drawn) [Compound A109, 6-chloro-1-(2-hydroxyethyl)-2-{[(2R,3S)-2-propyl-1-{[3-(trifluoromethyl)pyridin-2-yl]carbonyl}-3-{[5-(trifluoromethyl)thiophen-3-yl]oxy}piperidin-3-yl]carbonyl}-1,2,3,4-tetrahydroisoquinoline-1-carboxamide] showed a pIC50 of 7.00 to 9.00.
Molecule `CCC[C@H]1N(C(=O)c2ncccc2C(F)(F)F)CCC[C@@]1(Oc1csc(C(F)(F)F)c1)C(=O)N1CCc2sc(C(=O)O)cc2C1` [Compound A10, 5-{[(2R,3S)-2-propyl-1-{[3-(trifluoromethyl)pyridin-2-yl]carbonyl}-3-{[5-(trifluoromethyl)thiophen-3-yl]oxy}piperidin-3-yl]carbonyl}-4,5,6,7-tetrahydrothieno[3,2-c]pyridine-2-carboxylic acid] has a pIC50 of 4.70 to 7.00.
Molecule `CCC[C@H]1N(C(=O)c2ncccc2C(F)(F)F)CCC[C@@]1(Oc1csc(C(F)(F)F)c1)C(=O)N1Cc2ccc(F)cc2C[C@H]1CN1CCC(O)CC1` [Compound A162, 1-{[(3S)-6-fluoro-2-{[(2R,3S)-2-propyl-1-{[3-(trifluoromethyl)pyridin-2-yl]carbonyl}-3-{[5-(trifluoromethyl)thiophen-3-yl]oxy}piperidin-3-yl]carbonyl}-1,2,3,4-tetrahydroisoquinolin-3-yl]methyl}piperidin-4-ol] has a pIC50 of 4.70 to 7.00.
With `CCC[C@H]1N(C(=O)c2ncccc2C(F)(F)F)CCC[C@@]1(Oc1csc(C(F)(F)F)c1)C(=O)N1CCc2cc(Cl)ccc2C1C1CCC(C(=O)O)C1` (stereo partly drawn) [Compound A96, 3-(6-chloro-2-{[(2R,3S)-2-propyl-1-{[3-(trifluoromethyl)pyridin-2-yl]carbonyl}-3-{[5-(trifluoromethyl)thiophen-3-yl]oxy}piperidin-3-yl]carbonyl}-1,2,3,4-tetrahydroisoquinolin-1-yl)cyclopentanecarboxylic acid] the pIC50 was 7.00 to 9.00.
Work on `CCC[C@H]1N(C(=O)c2ncccc2C(F)(F)F)CCC[C@@]1(Oc1csc(C(F)(F)F)c1)C(=O)N1CCc2cc(Cl)ccc2C1COC` (stereo partly drawn) [Compound A107, 6-chloro-1-(methoxymethyl)-2-{[(2R,3S)-2-propyl-1-{[3-(trifluoromethyl)pyridin-2-yl]carbonyl}-3-{[5-(trifluoromethyl)thiophen-3-yl]oxy}piperidin-3-yl]carbonyl}-1,2,3,4-tetrahydroisoquinoline] yielded a pIC50 of 4.70 to 7.00.
In the case of `CCC[C@H]1N(C(=O)c2ncccc2C(F)(F)F)CCC[C@@]1(Oc1csc(C(F)(F)F)c1)C(=O)N1CCc2cc(F)ccc2C1` [Compound A48, 6-fluoro-2-{[(2R,3S)-2-propyl-1-{[3-(trifluoromethyl)pyridin-2-yl]carbonyl}-3-{[5-(trifluoromethyl)thiophen-3-yl]oxy}piperidin-3-yl]carbonyl}-1,2,3,4-tetrahydroisoquinoline], the pIC50 was 4.70 to 7.00.
Molecule `CCC[C@H]1N(C(=O)c2ncccc2C(F)(F)F)CCC[C@@]1(Oc1csc(C(F)(F)F)c1)C(=O)N1Cc2ccc(Cl)cc2C[C@@H]1CCC(=O)NO` [Compound A145, 3-[(3S)-6-chloro-2-{[(2R,3S)-2-propyl-1-{[3-(trifluoromethyl)pyridin-2-yl]carbonyl}-3-{[5-(trifluoromethyl)thiophen-3-yl]oxy}piperidin-3-yl]carbonyl}-1,2,3,4-tetrahydroisoquinolin-3-yl]-N-hydroxypropanamide] has a pIC50 of 7.00 to 9.00.
`CCC[C@H]1N(C(=O)c2ncccc2C(F)(F)F)CCC[C@@]1(Oc1csc(C(F)(F)F)c1)C(=O)N1CCc2cc(Cl)ccc2C1CCCC(=O)O` (stereo partly drawn) [Compound A74, 4-(6-chloro-2-{[(2R,3S)-2-propyl-1-{[3-(trifluoromethyl)pyridin-2-yl]carbonyl}-3-{[5-(trifluoromethyl)thiophen-3-yl]oxy}piperidin-3-yl]carbonyl}-1,2,3,4-tetrahydroisoquinolin-1-yl)butanoic acid] showed a pIC50 of 7.00 to 9.00.
For `CCC[C@H]1N(C(=O)c2ncccc2C(F)(F)F)CCC[C@@]1(Oc1csc(C(F)(F)F)c1)C(=O)N1CCc2cc(F)ccc2C1CC(=O)O` (stereo partly drawn) [Compound A56, (6-fluoro-2-{[(2R,3S)-2-propyl-1-{[3-(trifluoromethyl)pyridin-2-yl]carbonyl}-3-{[5-(trifluoromethyl)thiophen-3-yl]oxy}piperidin-3-yl]carbonyl}-1,2,3,4-. tetrahydroisoquinolin-1-yl)acetic acid], the pIC50 was 7.00 to 9.00.
`CCC[C@H]1N(C(=O)c2ncccc2C(F)(F)F)CCC[C@@]1(Oc1csc(C(F)(F)F)c1)C(=O)N1CCc2cc(Cl)ccc2C1CO` (stereo partly drawn) [Compound A105, (6-chloro-2-{[(2R,3S)-2-propyl-1-{[3-(trifluoromethyl)pyridin-2-yl]carbonyl}-3-{[5-(trifluoromethyl)thiophen-3-yl]oxy}piperidin-3-yl]carbonyl}-1,2,3,4-tetrahydroisoquinolin-1-yl)methanol] was tested, and the pIC50 was 4.70 to 7.00.
In the case of `NC(=O)C1c2ccc(Cl)cc2CCN1C(=O)[C@]1(Oc2csc(C(F)(F)F)c2)CCCN(C(=O)c2ncccc2C(F)(F)F)[C@@H]1CC(=O)O` (stereo partly drawn) [Compound A95, [(2R,3S)-3-[(1-carbamoyl-6-chloro-3,4-dihydroisoquinolin-2(1H)-yl)carbonyl]-1-{[3-(trifluoromethyl)pyridin-2-yl]carbonyl}-3-{[5-(trifluoromethyl)thiophen-3-yl]oxy}piperidin-2-yl]acetic acid], the pIC50 was 7.00 to 9.00.
For `O=C(c1ncccc1C(F)(F)F)N1CCC[C@@](Oc2csc(C(F)(F)F)c2)(C(=O)N2CCc3cc(F)ccc3C2)[C@H]1CCN1CCOCC1` [Compound A7, 6-fluoro-2-{[(2R,3S)-2-(2-morpholin-4-ylethyl)-1-{[3-(trifluoromethyl)pyridin-2-yl]carbonyl}-3-{[5-(trifluoromethyl)thiophen-3-yl]oxy}piperidin-3-yl]carbonyl}-1,2,3,4-tetrahydroisoquinoline], the pIC50 was 7.00 to 9.00.
`COCC1c2ccc(Cl)cc2CCN1C(=O)[C@]1(Oc2csc(C(F)(F)F)c2)CCCN(C(=O)c2ncccc2C(F)(F)F)[C@@H]1CCN1CCOCC1` (stereo partly drawn) [Compound A17, 6-chloro-1-(methoxymethyl)-2-{[(2R,3S)-2-(2-morpholin-4-ylethyl)-1-{[3-(trifluoromethyl)pyridin-2-yl]carbonyl}-3-{[5-(trifluoromethyl)thiophen-3-yl]oxy}piperidin-3-yl]carbonyl}-1,2,3,4-tetrahydroisoquinoline] gave a pIC50 of 7.00 to 9.00.
In the case of `CCC[C@H]1N(C(=O)c2ncccc2C(F)(F)F)CCC[C@@]1(Oc1csc(C(F)(F)F)c1)C(=O)N1CCc2sc(Cl)cc2C1CCC(N)=O` (stereo partly drawn) [Compound A24, 3-(2-chloro-5-{[(2R,3S)-2-propyl-1-{[3-(trifluoromethyl)pyridin-2-yl]carbonyl}-3-{[5-(trifluoromethyl)thiophen-3-yl]oxy}piperidin-3-yl]carbonyl}-4,5,6,7-tetrahydrothieno[3,2-c]pyridin-4-yl]propanamide], the pIC50 was 4.70 to 7.00.
`CCC[C@H]1N(C(=O)c2ncccc2C(F)(F)F)CCC[C@@]1(Oc1csc(C(F)(F)F)c1)C(=O)N1Cc2ccc(F)cc2C[C@@H]1CCC(=O)O` [Compound A124, 3-[(3S)-6-fluoro-2-{[(2R,3S)-2-propyl-1-{[3-(trifluoromethyl)pyridin-2-yl]carbonyl}-3-{[5-(trifluoromethyl)thiophen-3-yl]oxy}piperidin-3-yl]carbonyl}-1,2,3,4-tetrahydroisoquinolin-3-yl]propanoic acid] showed a pIC50 of 7.00 to 9.00.
With `CCC[C@H]1N(C(=O)c2cnccc2C(F)(F)F)CCC[C@@]1(Oc1csc(C(F)(F)F)c1)C(=O)N1Cc2ccccc2C[C@H]1CO` [Compound A120, [(3S)-2-{[(2R,3S)-2-propyl-1-{[4-(trifluoromethyl)pyridin-3-yl]carbonyl}-3-{[5-(trifluoromethyl)thiophen-3-yl]oxy}piperidin-3-yl]carbonyl}-1,2,3,4-tetrahydroisoquinolin-3-yl]methanol] the pIC50 was 4.70 to 7.00.
`NC(=O)C1c2ccc(Cl)cc2CCN1C(=O)[C@]1(Oc2csc(C(F)(F)F)c2)CCCN(C(=O)c2ncccc2C(F)(F)F)[C@@H]1CC(=O)O` (stereo partly drawn) [Compound A97, [(2R,3S)-3-[(1-carbamoyl-6-chloro-3,4-dihydroisoquinolin-2(1H)-yl)carbonyl]-1-{[3-(trifluoromethyl)pyridin-2-yl]carbonyl}-3-{[5-(trifluoromethyl)thiophen-3-yl]oxy}piperidin-2-yl]acetic acid] was tested, and the pIC50 was 7.00 to 9.00.
In the case of `CC(C)(C(=O)O)C1CCN(CC[C@H]2N(C(=O)c3ncccc3C(F)(F)F)CCC[C@@]2(Oc2csc(C(F)(F)F)c2)C(=O)N2CCc3cc(Cl)ccc3C2)CC1` [Compound A119, 2-(1-{2-[(2R,3S)-3-[(6-chloro-3,4-dihydroisoquinolin-2(1H)-yl)carbonyl]-1-{[3-(trifluoromethyl)pyridin-2-yl]carbonyl}-3-{[5-(trifluoromethyl)thiophen-3-yl]oxy}piperidin-2-yl]ethyl}piperidin-4-yl)-2-methylpropanoic acid], the pIC50 was 7.00 to 9.00.

Same assay, conditions: numeric value
Work on `COCCN(CCOC)CC[C@H]1N(C(=O)c2cnccc2C(F)(F)F)CCC[C@@]1(Oc1csc(C(F)(F)F)c1)C(=O)N1CCc2ccc(Cl)cc2C1` [Compound A1, 2-[(2R,3S)-3-[(7-chloro-3,4-dihydroisoquinblin-2(1H)-yl)carbonyl]-1-{[4-(trifluoromethyl)byridin-3-yl]carbonyl}-3-{[5-(trifluoromethyl)thiophen-3-yl]oxy}piperidin-2-yl]-N,N-bis(2-methoxyethyl)ethanamine] yielded a pIC50 of 3.33.
